According to US20110262562A1, “AQUEOUS SALINE SOLUTIONS FOR THE DESTRUCTION OF FATTY TISSUE” (LIPOLYANE, priority 2008, published 2011):

What was measured:
[1] = tested on: adipocytes prepared from murine adipous tissues; experiment: LDH released into the culture medium by murine adipocytes; assay type: cell-based; details: TDC 500 μM in 150 mOsm/L, compared with 150 mOsm/L alone (FIG. 7)
Procedure: Adipocytes were prepared from murine adipous tissues in the following way. Adipous tissues were sampled under aseptic conditions on anesthetized animals, and then finally cut and subjected to a dissociating enzymatic treatment with collagenase type II at 37° C. The incubation mixture was then centrifuged in order to remove the tissue debris. The adipocytes were purified by filtration under sterile conditions on a 160 μm nylon filter. After mild centrifugation, the adipocytes were washed from a phosphate buffer solution with pH 7.4 and, after counting, taken up again into a cell culture medium adapted from the type of Dubelco Modified Eagle's Medium or DMEM, and finally placed in sterile culture flasks and incubator at 37° C. adapted to the experiments. […]
Cell lysis was appreciated by the change in the number of adipocytes on the one hand and by the dosage of an intracellular enzyme released into the culture medium, lactico-dehydrogenase (abbreviated hereafter as LDH) on the other hand, expressed as a percentage with respect to the conditions for which cell lysis is complete (obtained in the presence of distilled water) and by comparison with the conditions of cell cultures.

[2] = tested on: line of human adipocytes (SW872); experiment: LDH activity released on lysis of human adipocytes in culture; assay type: cell-based
Procedure: To do this, adipocytes were incubated for durations comprised between 0 and 2 hours, in aqueous saline solutions according to the invention, and for which the concentrations of poloxamers and of biliary acid […]
The efficiency of adipocyte lysis was appreciated by the measurement of the activity of a cytosolic enzyme lactico dehydrogenase (LDH), released in the culture medium and expressed as a percentage of the total lysis.
The cells were derived from a line of human adipocytes (SW872) stemming from a liposarcoma deposited at the American Cell Bank of the National Institute of Health (NIH).
The adipocytes were cultivated in the following medium: DMEM (Dubelco's modified Eagle medium) with a high glucose content (4.5 g/L) which contained pyruvate, antibiotics (penicillin/streptomycin), a supplement of amino acids and 25% of Ham-F12 medium.
It should be noted that the experiments were then conducted in the presence of 1% fetal calf serum in order to minimize basal LDH activity likely to be present in the serum.
The salts of biliary acids and/or the poloxamers were put into solution in the aforementioned culture medium under sterile conditions. Suitable diluted aqueous saline solutions were made from parent solutions at 2% for poloxamers and 3 mM for the biliary acid salt.
The adipocytes were cultivated under sterile conditions (plastic dishes, incubator with 5% CO2, 37° C.) in suitable specific media and used for less than 10 passages oso as to conduct experiments on primary cells, i.e. close to the original adipous tissues. Cell counts were carried out in Mallassez cells and the viability was appreciated by exclusion of the blue dye Trypan.
After re-suspending them under the action of trypsin, the adipocytes were incubated in sterile 96-well plates. For experiments requiring significant amounts of cells, the preliminary incubations were conducted in sterile 24-well plates, and then transferred into 96-well plates (round bottom) for centrifugation, in order to efficiently separate entire cells from lyzed cells having released their enzymatic content then again found in the supernatant. An aliquot (100 μL) of the latter was then transferred into another 96-well plate adapted to dosages (flat bottom). After addition of the mixture of corresponding reagents (kit BioChain #K6330400), LDH activity was then measured (after incubation for 40 minutes with intermittent orbital stirring) in a computerized plate reader (MR5000/Biolinx, Dynatech) at the wavelength of 490 nm corrected from absorbance at 630 nm. The results are expressed as a percentage of the total lysis carried out in the presence of detergent (1% Triton X100).

Compound	activity of LDH in the medium [1]	lytic activity (LDH activity) ([2]; 300 mOsm/L, 750 μM of DC, after one hour (FIG. 15 B))	maximum lysis (LDH activity) ([2]; 300 mOsm/L, DC 0 to 750 μM, incubation of one hour)	LDH activity ([2]; 300 mOsm/L, DC 750 μM, after 30 minutes of incubation)	LDH activity ([2]; 300 mOsm/L, DC 750 μM, after 2 hours of incubation)	LDH activity ([2]; DC 750 μM added to hypo-osmolar (160 mOsm/L) aqueous saline solution, after one hour (FIG. 15 D or F))
C[C@H](CCC(=O)NCCS(=O)(=O)[O-])[C@H]1CC[C@H]2[C@@H]3CC[C@@H]4C[C@H](O)CC[C@]4(C)[C@H]3C[C@H](O)[C@]12C.[Na+] [TDC, sodium tauro-deoxycholate]	much more increased	–	–	–	–	–
sodium deoxycholate [DC]	–	38±5%	42±7%	26%	37%	~72±8%
